Experimental data from US9708336B2, “Metallo-beta-lactamase inhibitors” (priority 2014, dated 2017).
Where two headings read alike, the source gives them in different places.

Columns and labels:
[1] = test system: Serratia marcescens expressing IMP-1 (CL5741); experiment: Antibiotic potentiation activity: synergistic concentration (MITC95) with imipenem, OD600 growth; format: cell-based
How it was run: (§1)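 Overnight colonies (35 °C) were suspended in saline, diluted 1:100 into 1.1× CAMHB, and exposed to test compound with imipenem at 4 μg/ml (optionally 1 μg/ml) in assay. After 22–24 h at 35 °C, growth was read by absorbance.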

[2] = test system: Escherichia coli expressing NDM-1 (CLB30016); experiment: as above; format: cell-based
How it was run: as §1

[3] = test system: Klebsiella pneumoniae expressing VIM-1 (IHMA599644); experiment: as above; format: cell-based
How it was run: as §1

NDM-1 = NDM-1 (Klebsiella pneumoniae, UniProt C7C422); experiment: biochemical; format: biochemical; conditions: read-out: NDM-1 IC50
VIM-1 = VIM-1 (Pseudomonas aeruginosa (strain ATCC 15692 / DSM 22644 / CIP 104116 / JCM 14847 / LMG 12228 / 1C / PRS 101 / PAO1), UniProt A0A0F7KYQ8); experiment: Enzyme activity: determination of IC50, fluorescence assay with CCF2-FA substrate (VIM-1); format: biochemical
IMP-1 = IMP-1 (Serratia marcescens, UniProt P52699); experiment: biochemical; format: biochemical; conditions: read-out: IMP-1 IC50
[4] = Serratia marcescens expressing IMP-1 (CL5741), 95% growth inhibition
[5] = Escherichia coli expressing NDM-1 (CLB30016), 95% growth inhibition
[6] = Klebsiella pneumoniae expressing VIM-1 (IHMA599644), 95% growth inhibition
[7] = NDM-1 enzyme, CCF2-FA fluorescence assay
[8] = VIM-1 enzyme, CCF2-FA fluorescence assay, read-out: VIM-1 IC50
[9] = IMP-1 enzyme, CCF2-FA fluorescence assay
[10] = VIM-1 IC50, VIM-1 enzyme, CCF2-FA fluorescence assay
[11] = CL5741 (IMP-1), 95% inhibition of bacterial growth
[12] = CLB30016 (NDM-1), 95% inhibition of bacterial growth
[13] = IHMA599644 (VIM-1), 95% inhibition of bacterial growth
[14] = fluorescence assay with CCF2-FA substrate
[15] = fluorescence assay with CCF2-FA substrate, read-out: VIM-1 IC50
[16] = Serratia marcescens CL5741 (IMP-1), 95% growth inhibition
[17] = (CLB30016, NDM-1), 95% growth inhibition
[18] = Klebsiella pneumoniae IHMA599644 (VIM-1), 95% growth inhibition
[19] = NDM-1 enzyme, CCF2-FA substrate
[20] = VIM-1 enzyme, CCF2-FA substrate, read-out: VIM-1 IC50
[21] = IMP-1 enzyme, CCF2-FA substrate

Sequence of IMP-1 (P52699 whole entry, looked up): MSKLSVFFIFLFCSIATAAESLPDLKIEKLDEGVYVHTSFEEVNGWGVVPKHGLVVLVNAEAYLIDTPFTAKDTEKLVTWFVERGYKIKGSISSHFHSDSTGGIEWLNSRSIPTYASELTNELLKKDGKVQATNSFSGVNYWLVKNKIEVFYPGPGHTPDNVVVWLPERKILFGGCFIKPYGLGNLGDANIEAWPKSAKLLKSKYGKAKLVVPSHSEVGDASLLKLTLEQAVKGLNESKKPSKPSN
Sequence of NDM-1 (C7C422 whole entry, looked up, species assumed): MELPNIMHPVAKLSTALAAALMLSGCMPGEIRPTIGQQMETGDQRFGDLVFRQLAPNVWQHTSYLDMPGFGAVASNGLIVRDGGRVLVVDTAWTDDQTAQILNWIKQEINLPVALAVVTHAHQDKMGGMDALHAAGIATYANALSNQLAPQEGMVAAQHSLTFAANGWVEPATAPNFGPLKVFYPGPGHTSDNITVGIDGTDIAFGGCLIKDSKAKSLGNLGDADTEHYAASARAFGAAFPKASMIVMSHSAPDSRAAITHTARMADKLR

Row | Compound | Serratia marcescens MITC95 [1, 4] | Escherichia coli MITC95 [2, 5] | Klebsiella pneumoniae MITC95 [3, 6] | IC50 (NDM-1; [7]) | IC50 (VIM-1; [8]) | IC50 (IMP-1; [9]) | Serratia marcescens MITC95 [1, 16] | Escherichia coli MITC95 [2, 17] | Klebsiella pneumoniae MITC95 [3, 18] | IC50 (NDM-1; [19]) | IC50 (VIM-1; [20]) | IC50 (IMP-1; [21]) | also measured
1 | NS(=O)(=O)c1cccc(-c2ccc(CNC[C@@]3(O)CCOC3)cc2)c1-c1nnn[nH]1 [Example 373, 4′-[({[(3S)-3-hydroxytetrahydrofuran-3-yl]methyl}amino)methyl]-2-(1H-tetrazol-5-yl)biphenyl-3-sulfonamide] | 3.125 µM | 1.563 µM | 50 µM | 11.3 nM | 241 nM | 247 nM |  |  |  |  |  |  | 
2 | Nc1ncc(-c2ccc(C(F)(F)F)c(S(N)(=O)=O)c2-c2nnn[nH]2)cn1 [Example 475, 3-(2-aminopyrimidin-5-yl)-2-(1H-tetrazol-5-yl)-6-(trifluoromethyl)benzenesulfonamide] | 0.7813 µM | 0.7813 µM | 3.125 µM | 5.13 nM |  | 13.7 nM |  |  |  |  |  |  | IC50 (VIM-1; [10]): 1.92 nM
3 | Nc1nccc2cc(-c3ccc(C(F)(F)F)c(S(N)(=O)=O)c3-c3nnn[nH]3)ccc12 [Example 751, 3-(1-aminoisoquinolin-6-yl)-2-(1H-tetrazol-5-yl)-6-(trifluoromethyl)benzenesulfon-amide] |  |  |  |  |  |  |  |  |  |  |  |  | Serratia marcescens MITC95 [1, 11]: 3.125 µM; Escherichia coli MITC95 [2, 12]: 0.7813 µM; Klebsiella pneumoniae MITC95 [3, 13]: 3.125 µM; IC50 (NDM-1; [14]): 0.962 nM; IC50 (VIM-1; [15]): 0.108 nM; IC50 (IMP-1; [14]): 5.63 nM
4 | NS(=O)(=O)c1c(Cl)ccc(-c2ccc(C3CCNCC3)cc2)c1-c1nn[nH]n1 [Example 276, 4-chloro-4′-(piperidin-4-yl)-2-(2H-tetrazol-5-yl)-[1,1′-biphenyl]-3-sulfonamide] | 0.3906 µM | 0.7813 µM | 1.563 µM | 5.51 nM |  | 8.75 nM |  |  |  |  |  |  | IC50 (VIM-1; [10]): 3.38 nM
5 | NS(=O)(=O)c1c(C(F)(F)F)ccc(-c2snc3ncccc23)c1-c1nnn[nH]1 [Example 709, 3-isothiazolo[3,4-b]pyridin-3-yl-2-(1H-tetrazol-5-yl)-6-(trifluoromethyl)benzenesulfon-amide] |  |  |  |  |  |  | 25 µM | 6.25 µM | 6.25 µM | 6.58 nM | 0.289 nM | 16.4 nM | 
6 | CN(CCC(=O)O)Cc1ccc(-c2cccc(S(N)(=O)=O)c2-c2nnn[nH]2)cc1 [Example 361, N-methyl-N-{[3′-sulfamoyl-2′-(1H-tetrazol-5-yl)biphenyl-4-yl]methyl}-beta-alanine] | 3.125 µM | 2.344 µM | 25 µM | 12.9 nM | 271 nM | 139 nM |  |  |  |  |  |  | 
7 | NC1CCC(N[C@H]2CC[C@H](c3ccc(C(F)(F)F)c(S(N)(=O)=O)c3-c3nnn[nH]3)CC2)C1 (stereo partly drawn) [Example 691, 3-{4-[(3-aminocyclopentyl)amino]cyclohexyl}-2-(1H-tetrazol-5-yl)-6-(trifluoromethyl)benzene sulfonamide] |  |  |  |  |  |  | 3.125 µM | 0.7813 µM | 3.125 µM | 10.6 nM |  | 51.8 nM | IC50 (VIM-1; VIM-1 IC50, VIM-1 enzyme, CCF2-FA substrate): 6.13 nM
8 | NS(=O)(=O)c1c(C(F)(F)F)ccc(-c2cccn3ncnc23)c1-c1nnn[nH]1 [Example 840, 3-([1,2,4]triazolo[1,5-a]pyridin-8-yl)-2-(1H-tetrazol-5-yl)-6-(trifluoromethyl)benzenesulfonamide] |  |  |  |  |  |  |  |  |  |  |  |  | Serratia marcescens MITC95 [1, 11]: 12.5 µM; Escherichia coli MITC95 [2, 12]: 3.125 µM; Klebsiella pneumoniae MITC95 [3, 13]: 6.25 µM; IC50 (NDM-1; [14]): 2.49 nM; IC50 (VIM-1; [15]): 0.46 nM; IC50 (IMP-1; [14]): 14.1 nM
9 | Cn1c(-c2ccc(-c3ccc(C(F)(F)F)c(S(N)(=O)=O)c3-c3nnn[nH]3)cc2)cnc1N.O=C(O)C(F)(F)F [Example 560, 3-[4-(2-amino-3-methyl-imidazol-4-yl)phenyl]-2-(1H-tetrazol-5-yl)-6-(trifluoromethyl)benzenesulfonamide] |  |  |  |  |  |  | 3.125 µM | 6.25 µM | 6.25 µM | 0.727 nM | 0.212 nM | 0.898 nM | 
10 | NC[C@H]1CC[C@H](Cc2ccc(-c3ccc(C4CCNCC4)cc3)c(-c3nn[nH]n3)c2S(N)(=O)=O)CC1 [Example 457, 4-(((1r,4r)-4-(aminomethyl)cyclohexyl)methyl)-4′-(piperidin-4-yl)-2-(2H-tetrazol-5-yl)-[1,1′-biphenyl]-3-sulfonamide] | 0.1953 µM | 0.3906 µM | 1.172 µM | 1.1 nM | 0.803 nM | 3.05 nM |  |  |  |  |  |  | 
11 | NC1(c2ccc(-c3ccc(C(F)(F)F)c(S(N)(=O)=O)c3-c3nn[nH]n3)cc2)CCNCC1 [Example 436, 4′-(4-aminopiperidin-4-yl)-2-(2H-tetrazol-5-yl)-4-(trifluoromethyl)-[1,1′-biphenyl]-3-sulfonamide] | 0.2552 µM | 0.375 µM | 0.8542 µM | 9.32 nM | 3.04 nM | 12.8 nM |  |  |  |  |  |  | 
12 | NS(=O)(=O)c1cccc(-c2cccc3c2OCC3=O)c1-c1nn[nH]n1 [Example 521, 3-(3-Oxo-2,3-dihydrobenzofuran-7-yl)-2-(2H-tetrazol-5-yl)benzenesulfonamide] |  |  |  |  |  |  | 12.5 µM | 1.563 µM | 12.5 µM | 3.44 nM | 19.7 nM | 559 nM | 
13 | CC1(C)CCN(Cc2ccc(-c3cccc(S(N)(=O)=O)c3-c3nnn[nH]3)cc2)C1 [Example 346, 4′-[(3,3-dimethylpyrrolidin-1-yl)methyl]-2-(1H-tetrazol-5-yl)biphenyl-3-sulfonamide] | 2.344 µM | 1.563 µM | 150 µM | 11.7 nM | 408 nM | 232 nM |  |  |  |  |  |  | 
14 | Cc1cnc(-c2cccc(S(N)(=O)=O)c2-c2nn[nH]n2)cn1 [Example 248, 3-(5-Methylpyrazin-2-yl)-2-(2H-tetrazol-5-yl)benzenesulfonamide] | 4.688 µM | 0.1875 µM | 12.5 µM | 4.49 nM | 132 nM | 134 nM |  |  |  |  |  |  | 
15 | N=C(N)NCc1ccc(-c2ccc(CC3CCNCC3)c(S(N)(=O)=O)c2-c2nn[nH]n2)cc1 [Example 594, 4′-(guanidinomethyl)-4-(piperidin-4-ylmethyl)-2-(2H-tetrazol-5-yl)biphenyl-3-sulfonamide] |  |  |  |  |  |  | 1.563 µM | 0.7813 µM | 1.563 µM | 13.4 nM | 5.41 nM | 51.7 nM | 
16 | NS(=O)(=O)c1c(C(F)(F)F)ccc(-c2ccc3c(c2)CNC3)c1-c1nnn[nH]1 [Example 715, 3-(2,3-dihydro-1H-isoindol-5-yl)-2-(1H-tetrazol-5-yl)-6-(trifluoromethyl)benzenesulfon-amide] |  |  |  |  |  |  | 12.5 µM | 6.25 µM | 3.125 µM | 25.3 nM | 0.729 nM | 27.4 nM | 
17 | NS(=O)(=O)c1c(C(F)(F)F)ccc(C2CCN(C3CCNCC3)CC2)c1-c1nnn[nH]1 [Example 835, 3-[1-(4-piperidyl)-4-piperidyl]-2-(1H-tetrazol-5-yl)-6-(trifluoromethyl)benzenesulfonamide] |  |  |  |  |  |  |  |  |  |  |  |  | Serratia marcescens MITC95 [1, 11]: 6.25 µM; Escherichia coli MITC95 [2, 12]: 3.125 µM; Klebsiella pneumoniae MITC95 [3, 13]: 100 µM; IC50 (NDM-1; [14]): 96 nM; IC50 (VIM-1; [15]): 190 nM; IC50 (IMP-1; [14]): 232 nM
18 | NC(=O)Cc1ccc(-c2ccc(C(F)(F)F)c(S(N)(=O)=O)c2-c2nn[nH]n2)cc1 [Example 448, 2-(3′-sulfamoyl-2′-(2H-tetrazol-5-yl)-4′-(trifluoromethyl)-[1,1′-biphenyl]-4-yl)acetamide] | 0.1953 µM | 3.125 µM | 6.25 µM | 2.1 nM | 0.962 nM | 2.17 nM |  |  |  |  |  |  | 
19 | NS(=O)(=O)c1c(C(F)(F)F)ccc([C@H]2CC[C@H](NCC3CCNCC3)CC2)c1-c1nnn[nH]1 [Example 680, 3-{4-[(piperidin-4-ylmethyl)amino]cyclohex-yl}-2-(1H-tetrazol-5-yl)-6-(trifluoromethyl)benzene sulfonamide] |  |  |  |  |  |  | 3.125 µM | 1.563 µM | 6.25 µM | 41.4 nM | 5.16 nM | 86.6 nM | 
